# Biological target: BteCAι
# Assay: stopped-flow CO2 hydration assay
# Assay type: biochemical, Burkholderia territorii
# Settings: CO2 substrate; 20 °C, pH 7.5, 10 mM HEPES (methods give 20 mM TRIS pH 8.3, 20 mM NaClO4); 15 min preincubation
row,Compound,Ki [nM]
1,"Cc1onc(-c2ccccc2)c1-c1ccc(S(N)(=O)=O)cc1 [VLX, valdecoxib]",934
2,"NS(=O)(=O)Cc1noc2ccccc12 [ZNS, Zonisamide]",806
3,"CCN[C@H]1CN(CCCOC)S(=O)(=O)c2sc(S(N)(=O)=O)cc21 [BRZ, brinzolamide]",3700
4,"NS(=O)(=O)c1ccc(N2CCCCS2(=O)=O)cc1 [SLT, sulthiame]",954
5,"NC(N)=Nc1nc(CSCCC(N)=NS(N)(=O)=O)cs1 [FAM, Famotidine]",943
6,"O=C1NS(=O)(=O)c2ccccc21 [SAC, Saccharin]",7080
7,"NS(=O)(=O)c1nnc(NS(=O)(=O)c2ccccc2)s1 [BZA, benzolamide]",724
8,"Nc1ccc(S(N)(=O)=O)cc1Br [compound 9, 9]",96
9,"CCN1CCCC1CNC(=O)c1cc(S(N)(=O)=O)ccc1OC (centres unmarked) [SLP, Sulpiride]",958
10,"NS(=O)(=O)c1cc(Cl)c(Cl)c(S(N)(=O)=O)c1 [DCP, dichlorphenamide]",825
11,"CC1(C)O[C@@H]2[C@@H](CO[C@@]3(COS(N)(=O)=O)OC(C)(C)O[C@@H]23)O1 [TPM, topiramate]",787
12,"NS(=O)(=O)c1ccc(S(=O)(=O)Nc2cccc3c(Cl)c[nH]c23)cc1 [IND, Indisulam]",638
13,"Cc1ccc(-c2cc(C(F)(F)F)nn2-c2ccc(S(N)(=O)=O)cc2)cc1 [CLX, celecoxib]",960
14,"NS(=O)(=O)c1cc2c(cc1Cl)NCNS2(=O)=O [HCT, hydrochlorothiazide]",780
15,"Nc1nccc(Nc2ccc(S(N)(=O)=O)cc2)n1 [compound 19, 19]",93
16,"NS(=O)(=O)NCCNc1nonc1/C(=N/O)Nc1ccc(F)c(Br)c1 [EPA, epacadostat]",955
17,"NCc1ccc(S(N)(=O)=O)cc1 [compound 5, 5]",97
